Patent US20260374773A1, “MULTI-CYCLIC IRAK AND FLT3 INHIBITING COMPOUNDS AND USES THEREOF” (CHILDREN'S HOSPITAL MEDICAL CENTER, priority 2022, published 2026)
pKd: −log10 of the molar value.

Biological target: T1, FLT3 N841I (Homo sapiens, UniProt P36888, N841I)
T1 sequence (P36888 27-993 N841I): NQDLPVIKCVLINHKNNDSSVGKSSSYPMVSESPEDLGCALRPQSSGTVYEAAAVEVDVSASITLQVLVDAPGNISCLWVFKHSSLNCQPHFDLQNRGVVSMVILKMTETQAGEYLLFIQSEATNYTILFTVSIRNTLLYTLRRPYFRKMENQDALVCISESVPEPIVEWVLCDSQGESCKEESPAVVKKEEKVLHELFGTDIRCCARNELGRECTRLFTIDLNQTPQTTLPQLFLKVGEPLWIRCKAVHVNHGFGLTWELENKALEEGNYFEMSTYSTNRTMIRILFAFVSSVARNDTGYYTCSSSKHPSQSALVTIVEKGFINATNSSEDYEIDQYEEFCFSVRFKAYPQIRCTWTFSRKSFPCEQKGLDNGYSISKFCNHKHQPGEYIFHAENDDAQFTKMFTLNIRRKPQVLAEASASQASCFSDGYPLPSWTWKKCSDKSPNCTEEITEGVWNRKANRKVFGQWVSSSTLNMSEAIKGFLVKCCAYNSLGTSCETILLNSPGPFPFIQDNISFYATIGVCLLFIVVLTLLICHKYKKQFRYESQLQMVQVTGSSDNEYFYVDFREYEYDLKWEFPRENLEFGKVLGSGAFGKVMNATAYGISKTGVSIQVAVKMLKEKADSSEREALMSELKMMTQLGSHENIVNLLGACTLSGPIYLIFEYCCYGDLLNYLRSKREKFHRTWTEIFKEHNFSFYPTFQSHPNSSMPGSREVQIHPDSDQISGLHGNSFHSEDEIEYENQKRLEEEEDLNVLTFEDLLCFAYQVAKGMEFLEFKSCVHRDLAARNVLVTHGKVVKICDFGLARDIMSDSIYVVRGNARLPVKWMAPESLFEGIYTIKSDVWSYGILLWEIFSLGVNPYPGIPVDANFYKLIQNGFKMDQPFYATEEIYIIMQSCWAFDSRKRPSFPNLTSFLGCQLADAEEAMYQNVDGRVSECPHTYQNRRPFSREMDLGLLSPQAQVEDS
Assay: DiscoverX KINOMEscan active site-directed competition binding, FLT3 N841I
Details: Table 13; no ATP
Excerpt: (§1) Kinase binding data were obtained for various exemplary compounds prepared according to Examples 1-8 using the DiscoverX KINOMEscan® active site-directed competition binding site-directed assay protocol described below. […] As a result, the data report thermodynamic interaction affinities (Kd values), rather than IC50 values that are dependent on ATP concentrations. The assay uses a DNA-tagged version of the protein kinase, and an immobilized ligand bound to a solid support. Compounds that directly or indirectly prevent kinase binding to the immobilized ligand reduce the amount of kinase captured on the solid support, which is detected using an ultra-sensitive qPCR method. Affinity constants reported from the assay have been reported to be independent of the immobilized ligand used that is coupled to the solid support (See supplemental information in Fabian, M. A. et. al., (2005) Nat. Biotechnol. 23, 329-336; Wodicka, L. M. et. al., (2010) Chem. Biol. 17, 1241-1249.)
Kinase-tagged T7 phage strains were prepared in an E. coli host derived from the BL21 strain. E. coli were grown to log-phase and infected with T7 phage and incubated with shaking at 32 °C until lysis. The lysates were centrifuged and filtered to remove cell debris. The remaining kinases were produced in HEK-293 cells and subsequently tagged with DNA for qPCR detection. Streptavidin-coated magnetic beads were treated with biotinylated small molecule ligands for 30 minutes at room temperature to generate affinity resins for kinase assays. The liganded beads were blocked with excess biotin and washed with blocking buffer (SeaBlock (Pierce), 1% BSA, 0.05% Tween 20, 1 mM DTT) to remove unbound ligand and to reduce non-specific binding. […] Test compounds were prepared as 111x stocks in 100% DMSO. Kds were determined using an 11-point 3-fold compound dilution series with three DMSO control points. All compounds for Kd measurements are distributed by acoustic transfer (non-contact dispensing) in 100% DMSO. The compounds were then diluted directly into the assays such that the final concentration of DMSO was 0.9%. All reactions were performed in polypropylene 384-well plates. Each was a final volume of 0.02 mL. The assay plates were incubated at room temperature with shaking for 1 hour and the affinity beads were washed with wash buffer (1×PBS, 0.05% Tween 20). The beads were then re-suspended in elution buffer (1×PBS, 0.05% Tween 20, 0.5 μM nonbiotinylated affinity ligand) and incubated at room temperature with shaking for 30 minutes. The kinase concentration in the eluates was measured by qPCR. Binding constants (Kds) were calculated with a standard dose-response curve using the Hill equation. The Hill Slope was set to −1. Curves were fitted using a non-linear least square fit with the Levenberg-Marquardt algorithm.
as §1, with “9-12” for “1-8”
Kinase-tagged T7 phage strains were prepared in an E. coli host derived from the BL21 strain. […]

Row | pKd | Structure (SMILES)
1 | > 9.77 | COc1cn2ncc(-c3nc(N[C@H]4CNCC[C@@H]4F)c(C#N)cc3F)c2nc1C1CC1 [Compound 7, 6-(5-cyclopropyl-6-methoxypyrazolo[1,5-a]pyrimidin-3-yl)-5-fluoro-2-(((3S,4S)-4-fluoropiperidin-3-yl)amino)nicotinonitrile]
2 | 9.32 | COc1cn2ncc(-c3nc(N[C@H]4CNCC[C@@H]4F)c(C#N)cc3F)c2nc1C(C)(C)O [Compound 10, 5-fluoro-2-(((3S,4S)-4-fluoropiperidin-3-yl)amino)-6-(5-(2-hydroxypropan-2-yl)-6-methoxypyrazolo[1,5-a]pyrimidin-3-yl)nicotinonitrile]
3 | 9.10 | COc1cn2ncc(-c3nc(N[C@H]4CNCC[C@@H]4F)c(F)cc3F)c2nc1C(C)(C)O [Compound 13, 2-(3-(3,5-difluoro-6-(((3S,4S)-4-fluoropiperidin-3-yl)amino)pyridin-2-yl)-6-methoxypyrazolo[1,5-a]pyrimidin-5-yl)propan-2-ol]

Same assay, conditions: Table 19; no ATP

Row | pKd | Structure (SMILES)
4 | 9.15 | COc1cn2ncc(-c3nc(N[C@H]4CNCC[C@@H]4F)ncc3F)c2nc1C(C)(C)O [Compound 6a, 2-(3-(5-fluoro-2-(((3S,4S)-4-fluoropiperidin-3-yl)amino)pyrimidin-4-yl)-6-methoxypyrazolo[1,5-a]pyrimidin-5-yl)propan-2-ol]
5 | 9.21 | COc1cn2ncc(-c3ccnc(N[C@H]4CNCC[C@@H]4F)n3)c2nc1C1CC1 [Compound 7a, 4-(5-cyclopropyl-6-methoxypyrazolo[1,5-a]pyrimidin-3-yl)-N-((3S,4S)-4-fluoropiperidin-3-yl)pyrimidin-2-amine]
6 | 9.57 | COc1cn2ncc(-c3cncc(N[C@H]4CNCC[C@@H]4F)n3)c2nc1C1CC1 [Compound 12a, 6-(5-cyclopropyl-6-methoxypyrazolo[1,5-a]pyrimidin-3-yl)-N-((3S,4S)-4-fluoropiperidin-3-yl)pyrazin-2-amine]
7 | > 9.77 | COc1cn2ncc(-c3nc(N[C@@H]4CCCNC4)ncc3F)c2nc1C1CC1 [Compound 14a, (R)-4-(5-cyclopropyl-6-methoxypyrazolo[1,5-a]pyrimidin-3-yl)-5-fluoro-N-(piperidin-3-yl)pyrimidin-2-amine]
8 | > 9.77 | COc1cn2ncc(-c3nc(N[C@H]4CNCC[C@@H]4F)ncc3F)c2nc1C1CC1 [Compound 15a, 4-(5-cyclopropyl-6-methoxypyrazolo[1,5-a]pyrimidin-3-yl)-5-fluoro-N-((3S,4S)-4-fluoropiperidin-3-yl)pyrimidin-2-amine]
